PubChem BioAssay AID1963868 (Molecular Pharmacology Branch, DTP, NCI, 2024)

System: KRAS PDC tumor spheroids (HUVEC+MSC), viability
Test: Anticancer human tumor 254851-301-R-J1-PDC patient-derived colon carcinoma cell line growth inhibition [KRAS2]
Conditions: for IC50: curve of first compound; for viability, T/C: stronger effect = lower value
Summary of the method: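 KRAS-mutant tumor cells were grown as spheroids with HUVEC endothelial cells and human MSCs as stroma. Targeted agents were tested alone and with KRAS pathway inhibitors. Doses started at or near clinical Cmax, or 10 microM, descending half-log.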

[1] = second compound 0.1 µM, first compound 0.0316 µM
[2] = second compound 0.1 µM, first compound 0.1 µM
[3] = second compound 0.316 µM, first compound 0.0316 µM
[4] = second compound 0.316 µM, first compound 0.1 µM
[5] = second compound 1 µM, first compound 0.0316 µM
[6] = second compound 1 µM, first compound 0.1 µM
[7] = second compound 3.16 µM, first compound 0.0316 µM
[8] = second compound 3.16 µM, first compound 0.1 µM
[9] = second compound 10 µM, first compound 0.0316 µM
[10] = second compound 10 µM, first compound 0.1 µM
[11] = second compound 0.1 µM, first compound 0.000316 µM
[12] = second compound 0.1 µM, first compound 0.001 µM
[13] = second compound 0.1 µM, first compound 0.00316 µM
[14] = second compound 0.1 µM, first compound 0.01 µM
[15] = second compound 0.316 µM, first compound 0.000316 µM
[16] = second compound 0.316 µM, first compound 0.001 µM
[17] = second compound 0.316 µM, first compound 0.00316 µM
[18] = second compound 0.316 µM, first compound 0.01 µM
[19] = second compound 1 µM, first compound 0.000316 µM
[20] = second compound 1 µM, first compound 0.001 µM
[21] = second compound 1 µM, first compound 0.00316 µM
[22] = second compound 1 µM, first compound 0.01 µM
[23] = second compound 3.16 µM, first compound 0.000316 µM
[24] = second compound 3.16 µM, first compound 0.001 µM
[25] = second compound 3.16 µM, first compound 0.00316 µM
[26] = second compound 3.16 µM, first compound 0.01 µM
[27] = second compound 10 µM, first compound 0.000316 µM
[28] = second compound 10 µM, first compound 0.001 µM
[29] = second compound 10 µM, first compound 0.00316 µM
[30] = second compound 10 µM, first compound 0.01 µM
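Further: spheroids exposed to compounds for seven days before readout.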
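Wherever viability, T/C is given: 100% = DMSO vehicle control luminescence of the spheroids.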

Row | Compound | IC50 (second compound 0.1 µM) | IC50 (second compound 0.316 µM) | IC50 (second compound 1 µM) | IC50 (second compound 3.16 µM) | IC50 (second compound 10 µM) | viability, T/C [1] | viability, T/C [2] | viability, T/C [3] | viability, T/C [4] | viability, T/C [5] | viability, T/C [6] | viability, T/C [7] | viability, T/C [8] | viability, T/C [9] | viability, T/C [10] | viability, T/C [11] | viability, T/C [12] | viability, T/C [13] | viability, T/C [14] | viability, T/C [15] | other results
1 | Cn1nccc1Nc1nccc(-c2cc3c(s2)C(C)(C)N(CCN2CCOCC2)C3=O)n1 + CC1OCC2(CCN(c3cnc(Sc4ccnc(N)c4Cl)c(N)n3)CC2)C1N | 1720 nM | 1810 nM | 1290 nM | 469 nM | 422 nM | 97.6% | 98.1% | 83.8% | 86.8% | 77.4% | 83.7% | 68% | 77.5% | 64% | 79.5% |  |  |  |  |  | viability, T/C (second compound 0.1 µM, first compound 0.316 µM): 100%; viability, T/C (second compound 0.1 µM, first compound 1 µM): 86.9%; viability, T/C (second compound 0.1 µM, first compound 3.16 µM): 8.68%; viability, T/C (second compound 0.1 µM, first compound 10 µM): 4.09%; viability, T/C (second compound 0.316 µM, first compound 0.316 µM): 85.3%; viability, T/C (second compound 0.316 µM, first compound 1 µM): 69.8%; viability, T/C (second compound 0.316 µM, first compound 3.16 µM): 31.1%; viability, T/C (second compound 0.316 µM, first compound 10 µM): 4.06%; viability, T/C (second compound 1 µM, first compound 0.316 µM): 81.8%; viability, T/C (second compound 1 µM, first compound 1 µM): 61.1%; viability, T/C (second compound 1 µM, first compound 3.16 µM): 11.1%; viability, T/C (second compound 1 µM, first compound 10 µM): 3.68%; viability, T/C (second compound 3.16 µM, first compound 0.316 µM): 75.8%; viability, T/C (second compound 3.16 µM, first compound 1 µM): 4.42%; viability, T/C (second compound 3.16 µM, first compound 3.16 µM): 2.57%; viability, T/C (second compound 3.16 µM, first compound 10 µM): 1.97%; viability, T/C (second compound 10 µM, first compound 0.316 µM): 63%; viability, T/C (second compound 10 µM, first compound 1 µM): 10.3%; viability, T/C (second compound 10 µM, first compound 3.16 µM): 3.18%; viability, T/C (second compound 10 µM, first compound 10 µM): 2.52%
2 | Cn1ncnc1[C@H]1c2n[nH]c(=O)c3cc(F)cc(c23)N[C@@H]1c1ccc(F)cc1 + CNCc1ccccc1-c1csc(C(C)Nc2nc(C)nc3cc(OC)c(OC)cc23)c1 | > 100 nM | > 100 nM | > 100 nM | > 100 nM | < 0.316 nM | 95.6% | 93.6% | 94.5% | 92.5% | 86.9% | 95.2% | 67.9% | 63.6% | 0.22% | 0.23% | 94.9% | 90.7% | 92.4% | 96.9% | 90.6% | viability, T/C [16]: 95.6%; viability, T/C [17]: 98.8%; viability, T/C [18]: 85.4%; viability, T/C [19]: 101%; viability, T/C [20]: 97.8%; viability, T/C [21]: 93.9%; viability, T/C [22]: 84%; viability, T/C [23]: 66.3%; viability, T/C [24]: 65%; viability, T/C [25]: 64.3%; viability, T/C [26]: 63.7%; viability, T/C [27]: 0.23%; viability, T/C [28]: 0.23%; viability, T/C [29]: 0.25%; viability, T/C [30]: 0.21%
3 | CC(C)n1nc(-c2ccc3oc(N)nc3c2)c2c(N)ncnc21 + COc1cc2nc(C)nc(NC(C)c3cc(N)cc(C(F)(F)F)c3)c2cc1OC1CCOC1 | 20.7 nM | 21.1 nM | 20.7 nM | 20.1 nM | 11.6 nM | 34.7% | 21.4% | 38.7% | 24% | 37% | 23.6% | 32.6% | 22.5% | 34.2% | 21% | 99% | 118% | 91.2% | 76.2% | 102% | viability, T/C [16]: 100%; viability, T/C [17]: 81.7%; viability, T/C [18]: 70.2%; viability, T/C [19]: 88.7%; viability, T/C [20]: 98.6%; viability, T/C [21]: 87.2%; viability, T/C [22]: 72.2%; viability, T/C [23]: 85.3%; viability, T/C [24]: 98.2%; viability, T/C [25]: 88.2%; viability, T/C [26]: 76.7%; viability, T/C [27]: 86.4%; viability, T/C [28]: 97%; viability, T/C [29]: 73.7%; viability, T/C [30]: 51.9%
